Series [1] concerns LPS-stimulated macrophages. Conditions: cited from earlier work.
The conditions of series [2]: in vivo, cited from earlier work.
The test system of series [3] is rat model of cerebral ischemia. As to conditions: in vivo; cited from earlier work.
The conditions of series [4]: cited from earlier work.
Series [5] has as its system msP rats. Put plainly: Central PPAR antagonist GW9662 on andrographolide-induced reduction of alcohol intake in msP rats. As to conditions: andrographolide 10 mg/kg, 6 consecutive days; 2, 8 and 24 hours. In kind it is in vivo, rat. As for the experimental part: GW9662, purchased from Tocris (Bristol, UK), was dissolved in 10% DMSO and 3% Tween 80 and the final volume (5 μg/μl) was adjusted adding distilled water. GW9662 was injected ICV in a volume of 1 μl per rat by means of a stainless-steel injector 2.5 mm longer than the guide cannula, so that its tip protruded into the ventricle.
A 22-gauge guide cannula for intracerebroventricular (ICV) drug injections was stereotaxically implanted into the lateral cerebroventricle with the following coordinates: anteroposterior (AP)=1.0; lateral (L)=1.8; ventral (V)=2.0 with reference to bregma.
A widely used method for testing fluid preference is the two-bottle choice paradigm, in which water and 10% (v/v) alcohol solution were offered in graduated drinking tubes equipped with metallic drinking spouts and their consumption was measured by reading the volume consumed from the graduated tubes. Food intake was measured by weighing the food containers and taking into account spillage. Alcohol, water and food intakes are expressed as g/kg to reduce the influence of differences in body weight.
To examine whether the effect of andrographolide on alcohol intake is mediated by brain PPAR receptors, another group of msP rats (N=31) was treated ICV with 5 μg/rat of the PPAR antagonist GW9662 and then injected with andrographolide (10 mg/kg) or its vehicle. In a between-subject design each group of animals (N=7-8/group) received a different drug dose for 6 consecutive days. GW9662 or its vehicle were administered twice daily at 12 hours and 30 minutes before the beginning of the dark period of the light-dark cycle. Andrographolide was given immediately after GW9662 administrations.
Alcohol, water, and food intake was recorded at 0.5, 2, 8 and 24 hours from the moment that alcohol was made available.

The conditions of series [6]: clinical study; cited from earlier work.
For series [7], the system named is msP rats. The series is described as follows: Two-bottle choice paradigm, voluntary 10% alcohol intake in msP rats. In kind it is in vivo, rat. As to conditions: 3 days. The text has this: Male genetically selected alcohol-preferring rats were used. They were bred at the Department of Experimental Medicine and Public Health of the University of Camerino (Marche, Italy) for 64 generations from Sardinian alcohol-preferring (sP) rats of the 13th generation, provided by the Department of Neurosciences of the University of Cagliari (Colombo et al, 2006). They are referred to as Marchigian sP (msP) rats (Ciccocioppo et al, 2006). At the time of the experiments their body weight ranged between 300 and 350 g. They were kept in single cages in a room with a reverse 12:12 h light/dark cycle (lights off at 9:30 a.m.), temperature of 20-22° C. and humidity of 45-55%. […]
A widely used method for testing fluid preference is the two-bottle choice paradigm, in which water and 10% (v/v) alcohol solution were offered in graduated drinking tubes equipped with metallic drinking spouts and their consumption was measured by reading the volume consumed from the graduated tubes. Food intake was measured by weighing the food containers and taking into account spillage. Alcohol, water and food intakes are expressed as g/kg to reduce the influence of differences in body weight. […]
Alcohol, water and food intake were monitored daily at 0.5, 2, 8 and 24 hours. For all the experiments performed, intakes were recorded for several additional days after the end of the drug treatment period. […]

A further series concerns Wistar rats. The series is described as follows: Yohimbine-induced reinstatement of nicotine seeking in Wistar rats. The class given is in vivo, rat. Conditions: yohimbine 1.25 mg/kg IP; p<0.001. As for the experimental part: Animals are anesthetized by intramuscular injection of 100-150 μl of a solution containing tiletamine cloridrate (58.17 mg/ml) and zolazepam cloridrate (57.5 mg/ml). For IV surgery, incisions are made to expose the right jugular vein. A catheter made from micro-renathane tubing (I.D.=0.020 inches, O.D.=0.037 inches) is subcutaneously positioned between the vein and the back. After insertion into the vein, the proximal end of the catheter is anchored to the muscles underlying the vein with surgical silk. The distal end of the catheter is attached to a stainless-steel cannula bent at a 90° angle. The cannula is inserted in a support made by dental cement on the back of the animals covered with a plastic cap. […] Body weights are monitored every day and catheter patency is confirmed approximately every 3 days with an injection of 0.2-0.3 ml of thiopental sodium (250 mg/ml) solution. […]
The day after the last extinction session, in a within subject counterbalanced design animals are given Andrographis Paniculata extract OS at the doses of 0, 150; 450 mg/kg, given 1 hour prior to administration of yohimbine (1.25 mg/kg) or its vehicle. 30 minutes following the administration of yohimbine, animals (N=15) are placed in the self-administration apparatus, and lever pressesis recorded for 2 hours. […]

The subject of series [8] is msP rats. Put plainly: Yohimbine-induced reinstatement of alcohol seeking in msP rats. In kind it is in vivo, rat. Conditions: yohimbine 1.25 mg/kg i.p.; p<0.001. As for the experimental part:
The study was conducted using standard operant chambers (Med Associate, St Albans, Vt.) located in sound-attenuating, ventilated environmental cubicles. Each chamber was equipped with a drinking reservoir (volume capacity: 0.30 ml) positioned 4 cm above the grid floor in the centre of the front panel of the chamber, and two retractable levers located 3 cm to the right or to the left of the drinking receptacle. Auditory and visual stimuli were presented via a speaker and a light located on the front panel. A microcomputer controlled the delivery of fluids, presentation of auditory and visual stimuli, and recording of the behavioral data.
During the first 6 days of training, rats were allowed to lever-press for a 10% (v/v) alcohol solution containing 0.2% (w/v) saccharin solution, on a FR-1 schedule. In the following days, msP rats were trained to self-administer 10% alcohol solution (v/v) on a FR-1, time out 5 second (TO 5 s.) schedule of reinforcement. The TO period was signalled by illumination of a white house light above the right lever for 5 s. 10% (v/v) alcohol self-administration continued until stable baseline of responding was achieved.
After the last alcohol self-administration session, animals were subjected to 30-min extinction sessions. […]

Consider `C=C1CC[C@@H]2[C@](C)(CO)[C@H](O)CC[C@@]2(C)[C@@H]1C/C=C1/C(=O)OC[C@H]1O` [andrographolide], for which the “production of TNF-α, IL-1β and IL-12” value in [1] is listed as “inhibits”. Further, the oral bioavailability entry in series [2] (po) was “low”. In addition, the “binding to plasma proteins” value in series [2] is given as “high”. In addition, the neuroprotective effects entry in series [3] was “clear neuroprotective effects”. The aqueous solubility result in series [4] is “low”. In the series on msP rats [5], the alcohol drinking entry was “reduced alcohol consumption starting from the second day and for the entire duration of treatment”. Also, the “ability to cross the brain-blood barrier” value in series [6] is on record as “cross the brain-blood barrier”. Besides, the voluntary alcohol intake result is “a statistical difference from controls was observed the last day of treatment for all the time points” in the series on msP rats [7] (andrographolide 5 mg/kg i.p. twice daily); “the effect appeared from the second day of treatment (Day 3) and remained significant throughout the treatment period” with msP rats [7] (andrographolide 10 mg/kg i.p. twice daily (12 h and 30 min before dark period)).
With `COC(=O)[C@@H]1[C@H]2C[C@H]3c4[nH]c5ccccc5c4CCN3C[C@@H]2CC[C@@H]1O` [yohimbine], the “reinstatement of responding for nicotine vs extinction” value in the series on Wistar rats is listed as “significant reinstatement of responding”. In addition, the “reinstatement of operant response for alcohol vs extinction” value in the series on msP rats [8] is given as “significantly reinstated the operant response for alcohol”.

The values are drawn from patent US20140072662A1, “Andrographis Paniculata Compositions and Methods for Treatment of Addictions” (Omeros Corporation, priority 2012, published 2014).
